Results: a melting point compilation (Tetko et al.; mined from patent text by program, amines drawn as free bases though some values may be those of a salt)

O=C(CCCCCNC(=O)OCc1ccccc1)NCCCCCO showed a melting point of 92.5 to 94 °C.
Molecule CCOC(=O)CNC(=O)CCCCCNC(=O)c1ccc(OC)cc1 has a melting point of 106 to 107 °C.
For CN(C)c1ccc2ccc(=O)oc2c1, the melting point was 161 °C.
Work on O=C1NC(=O)N(CCc2ccc(Cl)cc2)C1O (stereo not given) yielded a melting point of 151 to 152 °C.
With Cn1c(SC(C)(CO)c2ccccc2)cc2ccccc21 (stereo not given) the melting point was 118 to 119 °C.
O=S(CCO)CCC(c1cc(F)ccc1F)S(=O)(=O)c1ccc(Cl)cc1 (stereo not given) showed a melting point of 124 to 132 °C.
With O=C(CCC(=O)N1Cc2c(cc3ccc4c(c3c2-c2ccc3c(c2)OCO3)OCO4)C1=O)OCc1ccccc1 the melting point was 128 to 129 °C.
Molecule CCCCCN(CCCCC)C(=O)[C@H]1Cc2c([nH]c3ccccc23)CN1 has a melting point of 157 to 158 °C.
For N#Cc1cccc(C=CC=O)c1, the melting point was 100 °C.
COc1ccc(N2CCc3c(C)nc4c(OC)cccc4c32)c(C)c1 showed a melting point of 163 to 167 °C.
Work on Cc1nc(N2CCN(c3ccccc3)C2=O)sc1C(=O)O yielded a melting point of 286 to 289 °C.
COc1cccc(Sc2c(O)cc(-c3ccccc3)oc2=O)c1 gave a melting point of 130 to 131 °C.
For O=C(c1cccs1)c1cnn2c(-c3cccc(NC(=O)C4CCCCC4)c3)ccnc12, the melting point was 239 to 240 °C.
For N#Cc1cccc(Oc2c(-c3ccccc3)cccc2-c2ccccc2)c1C#N, the melting point was 129 to 130 °C.
Molecule CC(=O)Oc1cc(C(C)=O)c(O)cc1NS(C)(=O)=O has a melting point of 205 to 206 °C.
In the case of Cc1ccc(-c2c(Cl)nc(-c3ccccc3)nc2Cl)cc1, the melting point is reported as 165 to 166 °C.
With COCc1cc2c(s1)CCCc1cc(=O)n(-c3ccc(OC)cc3)nc1-2 the melting point was 115 to 117 °C.
Molecule CN1Cc2ccc(NC(=O)N[C@@H]3c4cc(C#N)ccc4OC(C)(C)[C@H]3O)cc2C1 has a melting point of 220 to 222 °C.
Molecule O=C1OCC(c2ccccc2)N1CC1C2CCC(O2)C1CO (stereo not given) has a melting point of 131 to 133 °C.
For Cc1c(N(C)C)cc(C(=O)CS(C)(=O)=O)cc1N(C)C, the melting point was 161 to 163 °C.
O=C1c2c(-c3ccccc3)ccnc2OCCN1Cc1cc(C(F)(F)F)cc(C(F)(F)F)c1 gave a melting point of 200 to 201 °C.
Work on OCCCCc1ccc(N2CCOCC2)cc1 yielded a melting point of 51 to 52 °C.
For O=C(O)c1cn(-c2ccc(F)cc2)c2c(F)c(F)c(F)cc2c1=O, the melting point was 261 to 263 °C.
Work on CCCC(C(=O)OCC)N1CC(COc2cccc(Cl)c2)OC1=O (stereo not given) yielded a melting point of 43 to 49 °C.
For O=C(Nc1cnc2ccc(Cl)cc2c1-c1ccccc1)Nc1c(F)cccc1F, the melting point was 228 to 229 °C.
CCOC(=O)C(CC1C(O)C2CCN1CC2)c1ccccc1 (stereo not given) gave a melting point of 148 °C.
For NS(=O)(=O)c1ccc(N2CN(c3ccccc3)CC2=O)c(Cl)c1, the melting point was 204 °C.
For CCOc1nccc(CC(=O)O)c1NC(=O)OC(C)(C)C, the melting point was 94 to 95.5 °C.
COc1ccc(C2=NN(C(C)C)C(=O)[C@H]3CCCC[C@@H]23)cc1OC (relative stereo) gave a melting point of 79 to 81 °C.
For COc1ccc(N2CCN(c3c(C)c(C)c4c(c3C)C(N3CCCC3)C(C)(C)O4)CC2)cc1OC (stereo not given), the melting point was 128 to 130 °C.
In the case of NC(=O)c1ccc(F)c(O)c1F, the melting point is reported as 161 to 162 °C.
For CC(C)CN(Cc1nnc(-c2ncn3c2CN(C)C(=O)c2ccccc2-3)o1)CC(C)C, the melting point was 138 to 140 °C.
For CNc1cccc(OCc2ccccc2)c1N, the melting point was 79 to 81 °C.
Molecule Cc1cc(-c2ccccc2)n2nccc2n1 has a melting point of 70 to 71 °C.
With Cc1c(NC(=O)c2ccc(-c3ccc(F)cc3)cc2)ccc2cc(CN(C)C)cnc12 the melting point was 161 to 163 °C.
Work on O=C(C=Cc1ccc(NC(=O)c2ccccc2)cc1)NO yielded a melting point of 232 to 234 °C.
In the case of OCc1ncc(O)c2c1[nH]c1ccccc12, the melting point is reported as 148 °C.
Cc1cc(C(=O)NC(CCC(=O)OC(C)(C)C)C(=O)O)ccc1-c1c2cc(F)c(=O)cc-2oc2cc(O)c(F)cc12 (stereo not given) showed a melting point of 134 to 138 °C.
With CCC(C#N)CCn1nc(C(N)=O)c2ccccc21 (stereo not given) the melting point was 178 to 180 °C.
For CCCc1c(C(=O)C(C)C)c2ccc(C(N)=O)cc2n1Cc1ccccc1Br, the melting point was 173 to 174 °C.
For O=c1ccc(-c2ccnnc2)c[nH]1, the melting point was over 250 °C.
In the case of CN1CC(CCCl)Oc2cc(Cl)ccc2C1=S (stereo not given), the melting point is reported as 105 to 106 °C.
With COc1ccc(NC2C=CC3=Nc4ccccc4SC3=C2)cc1 (stereo not given) the melting point was 135 to 136 °C.
Molecule CCOc1c(C(F)(F)F)ncn(-c2c(Cl)cc(C(F)(F)F)cc2[N+](=O)[O-])c1=O has a melting point of 97.5 to 100 °C.
Work on O=C(Nc1cccc(C(F)(F)F)c1)Nc1ccc2[nH]c(C(F)(F)F)nc2c1 yielded a melting point of 213 to 215 °C.
Molecule C#CC(C)OS(=O)(=O)c1ccc(C)cc1 (stereo not given) has a melting point of 49 to 51 °C.
Molecule Cc1ccc(S(=O)(=O)n2ccc(-c3ccc(F)cc3)c2-c2ccc(S(C)(=O)=O)cc2)cc1 has a melting point of 228 to 229 °C.
CN1CCN(Cc2cc(NC(=O)Nc3ccc(Oc4cc(Cl)ncn4)cc3)cc(C(F)(F)F)c2)CC1 showed a melting point of 291 to 292 °C.
Fc1ccc(CC(=S)N2CCCCC2)cc1 showed a melting point of 65.5 to 67.5 °C.
COc1ccc2c(c1)c(CC(=O)N(C(=O)NC1CCCCC1)C1CCCCC1)c(C)n2-c1ncnc2cc(Cl)ccc12 showed a melting point of 105 to 107 °C.
CC(C)(C)OC(=O)N[C@@H](Cc1ccc(-c2ccc(F)cc2)cc1)C(=O)OCc1ccccc1 showed a melting point of 103 to 104 °C.
COc1cccc(C23CCCC=C2C(=O)N(CCc2ccc(C)cc2)C(=O)C3)c1 (stereo not given) gave a melting point of 134 to 140 °C.
Molecule CCOC(=O)N=P(c1ccccc1)(c1ccccc1)c1ccccc1C has a melting point of 113 to 114 °C.
CCOC(=O)C1=C(COCCNCC(N)=O)NC(C)=C(C(=O)OC)C1c1ccccc1Cl (stereo not given) showed a melting point of 126 to 129 °C.
For COc1cccc(NC=C2C(=O)OC(C)(C)OC2=O)c1, the melting point was 108 °C.
For O=S(=O)(CC1CS1)c1ccc(Oc2ccccc2)cc1 (stereo not given), the melting point was 99 to 101 °C.
COc1ccc(C(=O)Nc2ccccc2)cc1Nc1cccc(C)c1 showed a melting point of 160 to 161 °C.
Molecule Fc1ccccc1-c1nc2c(s1)NCCCC2 has a melting point of 115 to 116 °C.
Molecule CC(C)c1nc(CCCOCc2ccccc2)[nH]c1Sc1cc(Cl)cc(Cl)c1 has a melting point of 118 to 119 °C.
Molecule Fc1cccc2nc(S)oc12 has a melting point of 232 to 234 °C.
Work on CCOc1cc2c(cc1O)C(C(Cl)(Cl)Cl)OC2=O (stereo not given) yielded a melting point of 143 to 144 °C.
O=C1OC2CC1(O)CC(O)C2O (stereo not given) showed a melting point of 184 to 188 °C.
In the case of FC(F)(F)c1ccc(-c2cc(C(F)(F)F)n3cnc(-c4ccncc4)c3n2)cc1, the melting point is reported as 240 °C.
Molecule CC1(C(=O)O)CCc2cc(O)c(C(C)(C)C)cc2O1 (stereo not given) has a melting point of 218 to 221 °C.
O=[N+]([O-])c1ccc(-n2cccn2)cc1 showed a melting point of 210 °C.
For CC(=O)Oc1ccc(C(=O)N2CCN(CC(C)(C)S)CC2)cc1, the melting point was 121 °C.
Cc1cccc(-c2n[nH]cc2-c2ccc(F)c(-c3ccc(N4CCN(C)CC4)cn3)c2)n1 showed a melting point of 97 °C.
COc1cc2c(c3c1OC(C)(C)C3)C(c1cccc(-c3ccc(C(=O)O)cc3)c1)=NC(C)(C)C2 gave a melting point of 161 to 165 °C.
In the case of COC(=O)CCc1cc2c(s1)-n1c(C)nnc1C(C)N=C2c1ccccc1Cl (stereo not given), the melting point is reported as 131 to 132 °C.
Work on COc1cc(OC)c2c(=O)nc(-c3cc(C)c(O)c(C)c3)n(C)c2c1 yielded a melting point of 188 to 189 °C.
In the case of COc1ccc(CN(C)CCCOc2ccc(NC(=O)c3cccc4c(=O)c5cccc(F)c5[nH]c34)c(C)c2)cc1OC, the melting point is reported as 130 °C.
With Oc1ccc(-c2nnc(-c3cccc(-c4nnc(-c5ccc(O)cc5)o4)c3)o2)cc1 the melting point was over 400 °C.
CCC(CC)CC(=O)C1=C(O)c2cc(OC)c(OC)c(OC)c2C(O)(c2ccc(OC)c(OC)c2)C1C(=O)OC (stereo not given) gave a melting point of 132 to 133 °C.
Work on COC(=O)c1cc(C(=O)c2c(C)c(-c3cccc(OCC(=O)OC(C)(C)C)c3)c3ccccn23)ccc1N yielded a melting point of 81 °C.
CC(=O)OC1CSC(Oc2ccnc(-c3ccc(F)cc3C)c2)C(OC(C)=O)C1OC(C)=O (stereo not given) gave a melting point of 137 °C.
For CC(C)c1nn(-c2ccc(C(F)(F)F)cn2)cc1CCCCOc1cc(CCC(=O)O)n(C)n1, the melting point was 113 to 114 °C.
Molecule Cc1cccc(C)c1N1C(=O)c2ccc(C(=O)O)cc2C1=O has a melting point of 210 to 213 °C.
In the case of O=[N+]([O-])c1cc2nc(O)c(O)nc2cc1C(F)(F)F, the melting point is reported as over 300 °C.
Molecule Cc1cc(Nc2ccnc(Nc3ccc(S(=O)(=O)N(CC4CCCO4)C4CCN(C)CC4)cc3)n2)ccc1F (stereo not given) has a melting point of 189 °C.
OC(CCn1ccnc1)c1ccc(Br)cc1 (stereo not given) showed a melting point of 104 to 110 °C.
Work on COc1cc(Cl)ccc1C(=O)NC1COCCn2c1nc(-c1ccncn1)cc2=O (racemic) yielded a melting point of 274 to 276 °C.
Molecule CC(O)c1cc2c(s1)C(=O)c1ccsc1C2=O (stereo not given) has a melting point of 166 to 168 °C.
Molecule O=C1CN(N=Cc2ncc(-c3ccc(Cl)cc3)o2)C(=O)N1 has a melting point of 290 to 294 °C.
With CCN(c1nc(C)cc(-c2ccccc2C(=O)O)n1)c1ccc(C(C)C)cc1Br the melting point was 209 to 210 °C.
Work on COc1cc(CCN2CCN(c3nsc4ccccc34)CC2)c([N+](=O)[O-])cc1OC yielded a melting point of 135 °C.
Work on N#Cc1nn(-c2c(Cl)cc(C(F)(F)F)cc2Cl)c(N)c1-c1ccccc1Cl yielded a melting point of 192 to 193 °C.
In the case of CCCCC(CC)COc1c(-c2ccc(S(C)(=O)=O)cc2)cnn(-c2ccc(F)cc2)c1=O (stereo not given), the melting point is reported as 120 to 122 °C.
CCOc1c(Nc2cc(C(F)(F)F)ccc2OC)c(=O)c1=O gave a melting point of 143 to 155 °C.
CNC(=O)C(CCCl)(c1ccccc1)c1ccccc1 gave a melting point of 150 to 152 °C.
For COC(=O)/C(=C/CC[C@H](NC(=O)OCc1ccccc1)C(=O)N[C@H](C)C(=O)OC)NC(=O)OC(C)(C)C, the melting point was 120 to 121 °C.
For Nc1ccc(C(=O)N2CC3CC(CN(Cc4ccc(Cl)cc4)C3)C2)cc1, the melting point was 213 °C.
Work on CN(C)c1cnc(-c2cccc(Cl)c2Cl)c(N)n1 yielded a melting point of 147 to 148 °C.
For CCSC1(CCO)C(=O)Nc2ccc(Cl)cc21 (stereo not given), the melting point was 132 to 135 °C.
Molecule CN(C)c1nc(N)c(C#N)nc1C#N has a melting point of 201 to 202 °C.
For Clc1ncc(CN2CC3(COc4cc5c(cc43)OCO5)c3ccccc32)s1 (stereo not given), the melting point was 195 to 198 °C.
Work on CN(C)C=C1CCN(C(=O)c2ccc([N+](=O)[O-])cc2)c2ccccc2C1=O yielded a melting point of 180 to 183 °C.
With CCOC1CN(Cc2ccccc2OC)Cc2cc(OC)c(O)cc21 (stereo not given) the melting point was 101 to 102 °C.
With N#Cc1cc(C=O)ccc1-n1cnc([N+](=O)[O-])n1 the melting point was 170 to 172 °C.
In the case of CC(Br)C(=O)c1ccc(OCc2ccccc2)c(CO)c1 (stereo not given), the melting point is reported as 80 °C.
For ClCc1coc(-c2ccc(OCc3ccccc3)cc2)n1, the melting point was 119 to 120 °C.
